Results: patent publication US20160310417A1, “Formulations and Methods For Targeted Ocular Delivery of Therapeutic Agents” (Emory University, priority 2013, published 2016)

What was measured:
[1] = Intrastromal delivery of bevacizumab from coated microneedles into rabbit cornea in vivo (ELISA)
[2] = system: corneal neovascularization; test: Suture-induced corneal neovascularization model, neovascularization area by image analysis; type: in vivo, New Zealand rabbits; conditions: for average neovascularization area lower compared to no treatment group: MN-1bolus: intrastromal 1.1 μg, single microneedle; for reduction of neovascularization compared to untreated eye: SC-high: subconjunctival injection 2500 μg bolus on day 4
Experimental: All animal studies adhered to the ARVO statement for the Use of Animals in Ophthalmic and Vision Research and were approved by the Georgia Institute of Technology Institutional Animal Care and Use Committee (IACUC). Male and female New Zealand rabbits (2.2-2.5 kg) were anesthetized with ketamine (17 mg/kg), xylazine (8.5 mg/kg) and acepromazine (0.5 mg/kg) subcutaneously. Following topical administration of 0.5% proparacaine hydrochloride to minimize discomfort, a single 7.0-gauge silk suture (Ethicon TG140, Blue Ash, Ohio) was placed at midstromal depth 1 mm away from the limbus of the rabbit cornea to generate corneal neovascularization associated with minor traumatic injury. This silk suture was left in the rabbit cornea for the duration of the experiment to induce neovascularization. For each animal, a suture was placed in one eye and the companion eye was left untreated.
During the experiment, the rabbit eye was imaged using a digital camera (Cannon Rebel Tli, Melvile, N.Y.) with macroscopic lens (Cannon MP-E 65 mm) at 3× magnification every two days after placement of the suture. The area of neovascularization was quantified using Adobe Photoshop (Adobe, Jan Jose, Calif.).
Prior to all treatment procedures except for topical delivery, rabbits were anesthetized with ketamine (6 mg/kg), xylazine (4 mg/kg) and acepromazine (0.25 mg/kg) subcutaneously. A reduced dose of anesthesic compared to the suture insertion procedure was used to reduce possible stress to the animals. A single drop of topical proparacaine ophthalmic solution was given as anesthesia. The duration of each study was 18 days and, after the suture insertion at the beginning of the experiment, 4 days were allowed for neovascularization to develop. All the treatments were done on day 4 except as indicated below.
The high-dose group (SC-high) received 2500 μg of bevacuzumab (in 100 μL, i.e., Avastin). The low-dose group (SC-low) received 4.4 μg of bevacuzumab (Avastin was diluted with HBSS to 100 μL).

rabbit cornea = test: Safety of intrastromal delivery: corneal surface inspection and histology; type: in vivo
Description: To identify possible microanatomical changes after intrastromal delivery using microneedles, we conducted a histological safety study using four study groups: (i) The untreated group received no suture and no other treatments. (ii) The suture-only group received a suture at day 0, but no other treatments. (iii). The suture with non-coated microneedles group received a suture on day 0 and four non-coated microneedles inserted at the site of the suture on day 4. […] Animals were sacrificed on days 1, 6, 10 and/or 18 for histological analysis. Suture placement and microneedle application were carried out as described above. High magnification images were taken every day in all study groups to assess possible gross corneal damage. Corneal tissues were fixed in 10% formalin and embedded in paraffin. Hematoxylin-eosin (HE) or periodic acid-Schiff (PAS) staining was performed.
The rabbit corneas with and without microneedle treatment and with and without suture placement were evaluated to assess the safety of microneedle insertion by both magnified inspection of the corneal surface in vivo and histological examination of tissue sections obtained at various times after microneedle treatment Immediately after insertion and removal of the microneedle, a small puncture in the corneal epithelium was evident with a size on the order of 200 μm (data not shown). […]

IOP in the rabbit eye = test: Intraocular pressure (IOP) pharmacodynamics in normotensive rabbit, tonometer; type: in vivo, New Zealand White rabbits; conditions: for IOP decrease, treated eye: within 1 hour

Bevacizumab
coated bevacizumab delivered into the cornea ([1]; coated microneedles, 10 dip coats, inserted 60 sec, rabbit cornea in vivo): 52% | amount of bevacizumab delivered per microneedle ([1]; microneedles coated with 20 dips): 1.14 ± 0.11 µg | average neovascularization area lower compared to no treatment group ([2]; day 4, day 10): 34% | average neovascularization area lower compared to no treatment group ([2]; day 4, day 18): 10% | reduction of neovascularization area ([2]; MN-1bolusx3: intrastromal 1.1 μg on days 4, 6 and 8 (total 3.3 μg), day 10): 50% | reduction of neovascularization area compared to untreated eyes ([2]; MN-4bolus: intrastromal 4.4 μg, four coated microneedles, day 4, day 10): 65% | reduction of neovascularization compared to untreated eyes ([2]; MN-hollow: intrastromal 50 μg (2 μL of 25 μg/μL) by hollow microneedle, day 4, day 10): 74% | reduction of neovascularization compared to untreated eye ([2]; day 10): 62% | reduction of neovascularization compared to untreated eye ([2]; day 18): 29% | effect on neovascularization compared to untreated eyes ([2]; SC-low: subconjunctival injection 4.4 μg bolus on day 4): no significant effect | reduction of neovascularization compared to untreated eyes ([2]; TOP: topical eye drops 3 per day from day 4, total 52,500 μg, day 18): 6% | corneal histology, sutured eyes with versus without microneedle treatment (rabbit cornea; 1.1 μg bevacizumab by microneedle four days after suture): no notable differences | corneal surface after treatment with bevacizumab-coated microneedles (rabbit cornea; magnified inspection in vivo, daily over 18 days): only a microscopic puncture in the corneal epithelium that disappeared within one day and was not associated with any complications

FC(F)OC(Cl)C(F)(F)F (stereo not shown) [isoflurane]
time for effects on IOP to reverse (IOP in the rabbit eye; after inhalation stopped): 15 to 30 min | IOP elevation (IOP in the rabbit eye; during 15 min inhalation of escalating dose): ~5 mmHg

CC(C)OC(=O)CCC/C=C\C[C@@H]1[C@@H](CC[C@@H](O)CCc2ccccc2)[C@H](O)C[C@@H]1O [latanoprost]
change in IOP (IOP in the rabbit eye; standard human dose of 2.5 μg, rabbit model): no change in IOP was observed

CS(=O)(=O)NC(=O)CCC/C=C\C[C@H]1C(=O)C[C@@H](O)[C@@H]1/C=C/[C@@H](O)COc1ccccc1 [sulprostone, Sulprostone]
duration of ocular hypotension, treated eye (IOP in the rabbit eye; single topical eye drop 2.5 μg): about 8 hours | maximum IOP decrease, treated eye (IOP in the rabbit eye; single topical eye drop 2.5 μg, at approximately 2 hours): ~3.4 mmHg | ratio of topical to supraciliary dose for similar pharmacodynamic response (AUCPD comparison) (IOP in the rabbit eye; sulprostone, topical 2.5 μg vs supraciliary, Equation (2)): 101 | persistence of ocular hypotension, treated eye (IOP in the rabbit eye; supraciliary 0.005 μg in 10 μL): approximately 6 hours | peak IOP drop, treated eye (IOP in the rabbit eye; supraciliary 0.005 μg in 10 μL, at 1 hour): ~2.8 mmHg | persistence of IOP decrease (IOP in the rabbit eye; supraciliary 0.025 μg in 10 μL): at least 9 hours | IOP decrease, treated eye (IOP in the rabbit eye; supraciliary 0.025 μg in 10 μL): ~3.1 mmHg

brimonidine tartrate
supraciliary dose for similar pharmacodynamic response, fold less than topical delivery (AUCPD) (IOP in the rabbit eye; brimonidine, topical 75 μg vs supraciliary): 115 fold | time for IOP to return to normal (IOP in the rabbit eye; single topical drop 75 μg): ≤ 6 h | peak IOP reduction, treated eye (IOP in the rabbit eye; single topical drop 75 μg, at 2 hours): approximately 4 mmHg | IOP changes in treated and contralateral eyes (IOP in the rabbit eye; supraciliary 0.015 μg in 10 μL): no significant IOP changes | persistence of IOP drop (IOP in the rabbit eye; supraciliary 0.75 μg in 10 μL): about 5 hours | peak IOP drop, treated eye (IOP in the rabbit eye; supraciliary 0.75 μg in 10 μL, at 2 hours): ~3 mmHg | persistence of IOP decrease (IOP in the rabbit eye; supraciliary 1.5 μg in 10 μL): about 9 hours | IOP decrease, treated eye (IOP in the rabbit eye; supraciliary 1.5 μg in 10 μL): ~3.3 mmHg
